Assay results: ChEMBL document CHEMBL5108007, “High ligand efficiency quinazoline compounds as novel A2A adenosine receptor antagonists” (Eur J Med Chem, 2022)

Target: Adenosine receptor A2a (Homo sapiens, UniProt P29274)
Assay: Displacement of [3H]ZM241385 from human adenosine A2A receptor expressed in HEK293 cell membrane incubated for 1 hr by microplate beta scintillation counting based radioligand inhibition assay
Assay type: cell membranes

Chain of Adenosine receptor A2a (P29274 whole entry): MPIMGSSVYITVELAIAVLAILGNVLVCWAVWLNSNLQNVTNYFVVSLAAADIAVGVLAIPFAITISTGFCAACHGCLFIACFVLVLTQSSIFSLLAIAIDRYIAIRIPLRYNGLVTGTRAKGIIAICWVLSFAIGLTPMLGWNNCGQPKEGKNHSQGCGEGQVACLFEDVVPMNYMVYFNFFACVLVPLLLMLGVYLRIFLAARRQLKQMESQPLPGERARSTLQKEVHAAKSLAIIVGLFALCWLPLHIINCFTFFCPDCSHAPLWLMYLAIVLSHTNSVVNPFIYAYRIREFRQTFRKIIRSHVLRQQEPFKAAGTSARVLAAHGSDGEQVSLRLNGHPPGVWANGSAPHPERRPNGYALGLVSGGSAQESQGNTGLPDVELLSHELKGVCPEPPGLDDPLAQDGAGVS

Row | SMILES | Ki [nM]
1 | c1ccc(CCNc2ncnc3ccccc23)cc1 | > 10000
2 | Oc1nc(-c2ccccc2)c2ccccc2n1 | > 10000
3 | Clc1nc(-c2ccccc2)c2ccccc2n1 | > 10000
4 | c1ccc(-c2ncnc3ccccc23)cc1 | 2300
5 | Nc1nc(Nc2ccccc2)c2ccccc2n1 | > 10000
6 | Nc1nc(NCCc2ccccc2)c2ccccc2n1 | > 10000
7 | Nc1nc(NCc2ccccc2)c2ccccc2n1 | > 10000
8 | Nc1nc(-c2ccccc2)nc2ccccc12 | > 10000
9 | Nc1nc(-c2ccccc2)c2ccccc2n1 | 198
10 | Nc1nc(-c2cccc(F)c2)c2ccccc2n1 | 174
11 | COc1cccc(-c2nc(N)nc3ccccc23)c1 | 708
12 | NCc1nc(-c2ccccc2)c2ccccc2n1 | > 10000
13 | Nc1nc(CCc2ccccc2)c2ccccc2n1 | > 10000
14 | Nc1nc(-c2ccoc2)c2ccccc2n1 | 696
15 | C(#Cc1ncnc2ccccc12)c1ccccc1 | 4000
16 | N#Cc1cccc(-c2nc(N)nc3ccccc23)c1 | 586
17 | Cc1cccc(C)c1-c1nc(N)nc2ccccc12 | > 10000
18 | Cc1ccccc1-c1nc(N)nc2ccccc12 | 3300
19 | NCc1nc(-c2ccco2)c2ccccc2n1 | > 10000
20 | Nc1nc(-c2ccccc2[N+](=O)[O-])c2ccccc2n1 | > 10000
21 | Nc1nc(-c2ccccc2N)c2ccccc2n1 | 2000
22 | NCc1nc(NCCc2ccccc2)c2ccccc2n1 | > 10000
23 | Nc1nc(-c2ccco2)c2ccccc2n1 | 89
24 | Cc1ccc(-c2nc(N)nc3ccccc23)cc1 | 1500
25 | Nc1nc(-c2cccs2)c2ccccc2n1 | 171
26 | CC(C)(C)c1ccc(-c2nc(N)nc3ccccc23)cc1 | > 10000
27 | COc1ccccc1-c1nc(N)nc2ccccc12 | 651
28 | Nc1nc(-c2ccccc2F)c2ccccc2n1 | 456
29 | Nc1nc(-c2ccc(F)cc2)c2ccccc2n1 | 80
30 | COc1ccc(-c2nc(N)nc3ccccc23)cc1 | 736
